In brackets after ≈: the same amount, converted by molar mass. Several values for one entry are separate records, joined by “and”; a condition that tells them apart may be missing. Equal entries are not always repeated.
Key:
human red blood cells = test: Haemolysis analysis; conditions: human red blood cells, 50 µg/mL, positive control
Experimental: Next, 600 μl of this EDTA-treated blood was washed in TBS buffer (10 mM TRIS, 150 mM NaCl [pH 7.2]) and centrifuged at 1,500 g for 1 minute until the supernatant became colorless. The aliquot of the final pellet (200 μL) was diluted to 5 mL with TBS buffer. […] Next, 100 μL of red blood cell suspension was pipetted into sterile Eppendorf tubes together with 100 μL of 2-fold serial dilution of the compounds (final concentration ranged between 100 μg/mL–0.1 μg/mL in a final volume of 200 μL). The plate was incubated for one hour at 37 °C followed by centrifugation at 1,500 g for 1 minute to sediment all red blood cells. Next, all supernatants were subjected to LDH and Haemolysis-Icterus-Lipaemia (HIL) index determination on a Roche Modular P800 analyzer according to the manufacturer’s instructions. After completion of this step the rest of the supernatants were transferred to sterile 96-well plates for the measurement of their optical density at 560-nm wavelength (in a Multiskan FC microplate reader, Thermo Scientific). Melittin (Bachem) at a concentration of 50 μg/mL, and TBS and 10% DMSO/TBS were served as positive (100% hemolysis) and negative (no hemolysis) controls, respectively.

S. aureus = test: pH-dependent MIC determination; format: cell-based; conditions: for MIC: Staphylococcus aureus
Experimental: MICs were determined using a standard serial broth microdilution technique according to the CLSI guidelines. Briefly, bacterial strains were inoculated onto MHBII agar plates and were grown overnight at 37 °C. Next, 3 individual colonies from each strain were inoculated into 1 mL MHBII medium and propagated at 37 °C, 250 rpm overnight. In the cases of Enterococcus and Streptococcus sp., cells were plated to BHI agar plates, and BHI broth was used to determine MICs. […] Following dilutions, each well was seeded with 5×10^4 bacterial cells. All measurements were performed in 3 parallel replicates and to avoid possible edge effects in microwell plates, side rows (A and H) were filled with sterile medium. Following inoculations, plates were covered with lids and wrapped in polyethylene plastic bags to minimize evaporation but allow for O2 transfer. Plates were incubated at 37 °C under continuous shaking at 150 rpm for 18 hours. After incubation, OD600 of each well was measured using a BioTek Synergy 2 microplate reader.

[1] = system: S. aureus clinical isolates; test: microbe, parasite or virus in culture; format: cell-based; conditions: Staphylococcus aureus
[2] = system: S. aureus ATCC 700699 VISA; test: Time-dependent killing; format: cell-based; conditions: for Time-kill bacterial count: 10xMIC; for Colony numbers: time-kill raw counts, Samples 1-3
Experimental: Time-dependent killing experiments were performed as previously. S. aureus ATCC 700699 VISA cells were inoculated to MHBII agar plates and grown overnight at 37 °C. Next, 3 independent stationer-phase starter cultures were grown at 37 °C, 250 rpm overnight, in 3 × 1 mL MHBII broth. Next, 100-fold diluted cultures were prepared from each in 20 mL fresh MHBII medium and grown at 37 °C, 250 rpm until early exponential phase (OD600 = 0.3–0.4; i.e., 5 × 10^5 cells/mL). […] Cells were treated with antibiotics in Erlenmeyer flasks at 37 °C, 150 rpm for 48 hours. […] Next, 50 μL from each dilution were plated on MHBII agar plates, and plates were incubated overnight at 37 °C to calculate CFU per mL.

[3] = system: S. aureus USA300 (MRSA) BAA1556, S. aureus (VRSA) ECL2963646, S. aureus Mu50 (VISA) ATCC 700699; test: S. aureus dermal infection model; format: in vivo, ICR mice; conditions: 2% treatment, individual animals
Experimental: The testing strains, S. aureus USA300 (MRSA) BAA1556, S. aureus (VRSA) ECL2963646, and S. aureus Mu50 (VISA) ATCC 700699 were obtained from frozen stocks and thawed at room temperature. Next, an aliquot of 0.2 mL from each stock was transferred to 20 mL BHI broth and incubated at 37 °C with shaking (120 rpm) for 8 hours. Cells in 20 mL culture were pelleted by centrifugation, 3,500g for 15 minutes, and then resuspended in 10 mL cold PBS, then cells were diluted in PBS to obtain the inoculum sizes of 1×10^5 or 1× 10^6 CFU/mL, based on the testing strain’s virulence. In all cases, the actual colony counts were determined by plating dilutions in at least 3 replicates onto MHBII agar plates followed by 24 hours’ incubation and colony counting.
For dermal infections, groups of 5 female ICR mice weighing 24 ± 4 g, provided by BioLasco Taiwan (under a Charles River Laboratories Technology Licensee), were used. Animals were acclimated for 3 days prior to use and were confirmed to be in good health. Prior to infection, animals were anesthetized with etomidate-lipuro emulsion (20 mg /10 mL) at 20 mg/kg by IV injection, and then the fur on the back was removed by an electric shaver, and the epidermal layer was disrupted with an abrasive paper according to the protocol developed by Kugelberg and colleagues. Mice were inoculated topically on the wound area with testing strain suspension, 5 μL/mouse. The target inoculation densities were 1×10^5 or 1× 10^6 CFU/mL, based on the corresponding strain’s virulence. Following infection, animals were housed separately. […] Test articles were administered topically (20 μL/mouse) twice daily. One no-treatment group was euthanized at 1 hour after infection for initial bacterial counts, and the other treatment groups were dosed twice daily with the test compounds and sacrificed either at 25 hours or at 73 hours postinfection. Animals were euthanized with CO2 asphyxiation and the infected skin, a 2 cm^2 area, was excised. The skin samples of the wound infection (around 2 cm^2 areas) were then homogenized in 1 mL PBS (pH 7.4) with a polytron homogenizer. A 0.1 mL aliquot of each homogenate was used for serial 10-fold dilutions and plated onto MHBII agar plates for bacterial enumeration. Statistical significance (P <0.05) was assessed with 1-way ANOVA followed by Dunnett’s method. A significant (P <0.05) decrease in the bacterial counts of the treated animals compared with the vehicle control group was considered significant antimicrobial activity.

[4] = S. aureus ATCC 43300 (MRSA), pH 5.5
[5] = S. aureus ATCC 43300 (MRSA), pH 7.3
[6] = S. aureus ATCC 700699 (VISA), pH 5.5
[7] = S. aureus ATCC 700699 (VISA), pH 7.3

Melittin [reference compound] was tested, and the “Hemolytic Index” value (human red blood cells) was 248 and the LDH activity (human red blood cells) was 525 Unit/mL.
`CN[C@H](CC(C)C)C(=O)N[C@H]1C(=O)N[C@@H](CC(N)=O)C(=O)N[C@H]2C(=O)N[C@H]3C(=O)N[C@H](C(=O)N[C@H](C(=O)O)c4cc(O)cc(O)c4-c4cc3ccc4O)[C@H](O)c3ccc(c(Cl)c3)Oc3cc2cc(c3O[C@@H]2O[C@H](CO)[C@@H](O)[C@H](O)[C@H]2O[C@H]2C[C@](C)(N)[C@H](O)[C@H](C)O2)Oc2ccc(cc2Cl)[C@H]1O` [Vancomycin] was tested, and the “potency on shift from pH 7.3 to 5.5” value (S. aureus; S. aureus, in words) was “unaffected”, the MIC (S. aureus; [4]) was 2 µg/mL and the MIC (S. aureus; [5]) was 1 µg/mL. It also gave an MIC (S. aureus; [6]) of 8 µg/mL, an MIC (S. aureus; [7]) of 8 µg/mL and an MIC ([1]; ATCC 29213 / MSSA) of 1 µg/mL (≈ 0.69 µM). It also gave an MIC ([1]; MRSA) of 1 µg/mL (≈ 0.69 µM), an MIC ([1]; MRSA / NRS 3 / VISA) of 8 µg/mL (≈ 5.52 µM) and an MIC ([1]; MRSA / NRS 4 / VISA) of 4 µg/mL (≈ 2.76 µM). The MIC ([1]; MRSA / NRS 18 / VISA) was 8 µg/mL (≈ 5.52 µM), the MIC ([1]; MRSA / NRS 19 / VISA) was 4 µg/mL (≈ 2.76 µM) and the MIC ([1]; MRSA / NRS 21 / VISA) was 4 µg/mL (≈ 2.76 µM). It also gave an MIC ([1]; MRSA / NRS 22 / USA600 / VISA) of 8 µg/mL (≈ 5.52 µM), an MIC ([1]; MRSA / NRS 23 / VISA) of 4 µg/mL (≈ 2.76 µM) and an MIC ([1]; MRSA / NRS 24 / VISA) of 8 µg/mL (≈ 5.52 µM). The MIC ([1]; MRSA / NRS 26) was 2 µg/mL (≈ 1.38 µM), the MIC ([1]; MRSA / NRS 27 / VISA) was 4 µg/mL (≈ 2.76 µM) and the MIC ([1]; MRSA / NRS 29 / VISA) was 4 µg/mL (≈ 2.76 µM). For the same compound, the MIC ([1]; MRSA / NRS 37 / VISA) was 4 µg/mL (≈ 2.76 µM), the MIC ([1]; MRSA / NRS 54) was 2 µg/mL (≈ 1.38 µM) and the MIC ([1]; MRSA / NRS 56 / VISA) was 4 µg/mL (≈ 2.76 µM). For the same compound, the MIC ([1]; MRSA / USA100 / VRSA) was > 64 µg/mL, the MIC ([1]; MRSA / USA800 / VRSA) was > 64 µg/mL and the MIC ([1]; MSSA) was 1 µg/mL (≈ 0.69 µM). The MIC ([1]; MSSA / NRS 12 / VISA) was 4 µg/mL (≈ 2.76 µM), the MIC ([1]; MSSA / NRS 13 / VISA) was 4 µg/mL (≈ 2.76 µM) and the MIC ([1]; MSSA / NRS 14 / VISA) was 4 µg/mL (≈ 2.76 µM). It also gave an MIC ([1]; MSSA / NRS 17 / VISA) of 8 µg/mL (≈ 5.52 µM), an MIC ([1]; MSSA / NRS 28 / VISA) of 4 µg/mL (≈ 2.76 µM) and an MIC ([1]; MSSA / NRS 52) of 2 µg/mL (≈ 1.38 µM). The MIC ([1]; MSSA / USA100 / VRSA) was > 64 µg/mL, the Time-kill bacterial count ([2]; time 0 hour) was 2.80E+05 and the Time-kill bacterial count ([2]; time 3 hour) was 8.40E+04. For the same compound, the Time-kill bacterial count ([2]; time 6 hour) was 3.30E+04, the Time-kill bacterial count ([2]; time 12 hour) was 1.30E+03 and the Time-kill bacterial count ([2]; time 18 hour) was 3.80E+03. The Time-kill bacterial count ([2]; time 24 hour) was 1.60E+02, the Time-kill bacterial count ([2]; time 48 hour) was 5.30E+01 and the Colony numbers ([2]; time 0 h, Dilution 100) was 145 and 132 and 137. For the same compound, the Colony numbers ([2]; time 3 h, Dilution 100) was 48 and 36 and 42, the Colony numbers ([2]; time 6 h, Dilution 100) was 20 and 13 and 16 and the Colony numbers ([2]; time 12 h, Dilution 10) was 8 and 7 and 4. The Colony numbers ([2]; time 18 h, Dilution 1) was 231 and 176 and 163 and the Colony numbers ([2]; time 24 h, Dilution 0.5) was 17 and 12 and 18.
In the case of `Nc1nc(-n2cc(C(=O)O)c(=O)c3cc(F)c(N4CC(O)C4)c(Cl)c32)c(F)cc1F` [Delafloxacin], the MIC (S. aureus; [4]) is reported as 0.0005 µg/mL, the MIC (S. aureus; [5]) is reported as 0.004 µg/mL and the MIC (S. aureus; [6]) is reported as 0.032 µg/mL. For the same compound, the MIC (S. aureus; [7]) was 1 µg/mL.
With `C/C(=C\C(=O)OCCCCCCCCC(=O)O)C[C@@H]1OC[C@H](C[C@@H]2O[C@H]2[C@@H](C)[C@H](C)O)[C@@H](O)[C@H]1O` [mupirocin, reference compound] the “Log CFU/Skin” value ([3]; Staphylococcus aureus ECL 2963646 (VRSA)) was 5.07 Log CFU/Skin and 5.72 Log CFU/Skin and 5.58 Log CFU/Skin and 5.64 Log CFU/Skin and 4.16 Log CFU/Skin and the “Log CFU/Skin” value ([3]; Staphylococcus aureus Mu50 ATCC 700699 (VISA)) was 3.89 Log CFU/Skin and 4.45 Log CFU/Skin and 5.25 Log CFU/Skin and 3.85 Log CFU/Skin and 4.43 Log CFU/Skin.
Work on `CC(=O)O[C@H]1C[C@@]2(C)[C@@H](C[C@@H](O)[C@H]3[C@@]4(C)CC[C@@H](O)[C@@H](C)[C@@H]4CC[C@@]32C)/C1=C(\CCC=C(C)C)C(=O)O` [fusidic acid] yielded a Time-kill bacterial count ([2]; time 0 hour) of 2.80E+05, a Time-kill bacterial count ([2]; time 3 hour) of 7.80E+04 and a Time-kill bacterial count ([2]; time 6 hour) of 5.60E+04. The Time-kill bacterial count ([2]; time 12 hour) was 1.40E+04, the Time-kill bacterial count ([2]; time 18 hour) was 3.40E+03 and the Time-kill bacterial count ([2]; time 24 hour) was 1.40E+03. The Time-kill bacterial count ([2]; time 48 hour) was 1.70E+04, the Colony numbers ([2]; time 0 h, Dilution 100) was 145 and 132 and 137 and the Colony numbers ([2]; time 3 h, Dilution 100) was 47 and 39 and 31. For the same compound, the Colony numbers ([2]; time 6 h, Dilution 100) was 31 and 21 and 32, the Colony numbers ([2]; time 12 h, Dilution 10) was 81 and 58 and 73 and the Colony numbers ([2]; time 18 h, Dilution 1) was 223 and 160 and 130. The Colony numbers ([2]; time 24 h, Dilution 0.5) was 163 and 86 and 158, the “regrowth of S. aureus populations” value ([2]; within 48 hours, 10× MIC, in words) was “regrowth was observable” and the “Log CFU/Skin” value ([3]; Staphylococcus aureus USA300 (MRSA)) was 4.49 Log CFU/Skin and 5.07 Log CFU/Skin and 4.98 Log CFU/Skin and 4.68 Log CFU/Skin and 3.36 Log CFU/Skin.

— article PMC7561186, “Rational design of balanced dual-targeting antibiotics with limited resistance” (PLoS Biology, 2020)
